Experimental data as given in patent US20240067693A1, “POLYPEPTIDES AND USES THEREOF” (MEDIMMUNE LIMITED, priority 2020, published 2024).
Numbered stars: 1 amine (or outer) side, 2 acyl side, 3 side chain; on linkers, the order of the positions; unused ones are H or OH. Bridge positions count the residues as written; N and C are the ends. Square brackets hold non-standard residues; d marks the D form. Side chains are listed from the residue outwards. Peptide text beside a SMILES is read from it. * marks the point of attachment. C18 diacid = O=C(O)CCCCCCCCCCCCCCCCC(=O)*; γGlu = O=C(O)[C@H](CCC(=O)[*:2])N[*:1]; αMeF = C[C@](N)(Cc1ccccc1)C(=O)O

Columns and labels:
[1] = biological target: T1, rat amylin receptor (calcitonin receptor co-expressed with receptor activity modifying protein, RAMP3) (Rat AMYR3) (Rattus norvegicus, UniProt P32214+Q9JJ73); assay: cAMP production in HEK cells with stable recombinant expression of rat amylin receptor (Rat AMYR3); format: cell-based; conditions: assay buffer with 0.1% BSA
T1 construct: expressed in transfected cells
T1 sequence (P32214 25-516): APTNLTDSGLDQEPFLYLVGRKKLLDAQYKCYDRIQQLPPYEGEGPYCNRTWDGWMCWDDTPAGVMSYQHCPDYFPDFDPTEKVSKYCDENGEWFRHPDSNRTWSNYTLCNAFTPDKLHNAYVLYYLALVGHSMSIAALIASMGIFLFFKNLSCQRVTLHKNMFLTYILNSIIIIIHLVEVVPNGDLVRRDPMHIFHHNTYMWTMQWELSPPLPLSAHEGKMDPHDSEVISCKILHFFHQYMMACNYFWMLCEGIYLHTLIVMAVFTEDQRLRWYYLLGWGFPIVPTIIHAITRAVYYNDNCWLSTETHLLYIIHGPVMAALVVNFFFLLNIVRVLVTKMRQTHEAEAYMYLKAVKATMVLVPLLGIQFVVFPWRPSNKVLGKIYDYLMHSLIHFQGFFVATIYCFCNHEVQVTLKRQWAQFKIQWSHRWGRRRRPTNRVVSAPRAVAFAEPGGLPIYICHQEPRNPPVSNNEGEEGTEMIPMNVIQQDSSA
T1 sequence (Q9JJ73 23-147 partner): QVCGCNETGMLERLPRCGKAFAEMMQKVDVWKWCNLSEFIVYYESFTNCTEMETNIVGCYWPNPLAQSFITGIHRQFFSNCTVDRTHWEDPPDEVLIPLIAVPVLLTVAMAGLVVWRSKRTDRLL
Outline: (§1)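 EC50 values come from 4-parameter logistic fits of HTRF cAMP signal, normalised to maximal calcitonin or amylin effect. Peptides were tested in duplicate for 30 min at RT in IBMX-containing (0.5 mM) BSA/HEPES buffer pH 7.4 on stable 1321N1 (human CTR, AMYR3) or HEK (rat CTR, AMYR3) lines.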

[2] = biological target: T2, human calcitonin receptor (hCTR) (Homo sapiens, UniProt P30988); assay: cAMP production in 1321N1 cells with stable recombinant expression of human calcitonin receptor (hCTR); format: cell-based; conditions: cAMP, 1321N1 cells, assay buffer with 0.1% BSA; read-out: EC50 (pM) hCTR
T2 construct: expressed in transfected cells
T2 sequence (P30988 25-474): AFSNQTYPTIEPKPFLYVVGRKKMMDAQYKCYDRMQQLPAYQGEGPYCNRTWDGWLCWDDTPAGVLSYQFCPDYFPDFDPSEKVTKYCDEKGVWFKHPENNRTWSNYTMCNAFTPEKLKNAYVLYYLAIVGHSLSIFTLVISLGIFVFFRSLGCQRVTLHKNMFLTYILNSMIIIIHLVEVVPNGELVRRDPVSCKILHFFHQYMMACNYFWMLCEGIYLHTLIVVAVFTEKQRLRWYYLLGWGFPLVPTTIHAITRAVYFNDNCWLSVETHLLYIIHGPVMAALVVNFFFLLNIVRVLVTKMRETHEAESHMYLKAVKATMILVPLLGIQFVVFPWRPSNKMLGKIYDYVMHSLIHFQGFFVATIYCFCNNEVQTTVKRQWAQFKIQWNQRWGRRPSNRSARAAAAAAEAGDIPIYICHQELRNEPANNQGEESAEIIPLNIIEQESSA
Outline: as §1

[3] = Thioflavin T fibrillation assay; format: physicochemical; conditions: ThT fibrillation assay; peptide 1 mg/mL in 25 mM sodium acetate buffer pH 4.0; 6 days at 37 °C with shaking; >144 h = no increase
Outline: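 Peptides at 1 mg/mL in 25 mM sodium acetate pH 4.0 with ThT (from 0.25 mM stock), incubated 6 days at 37 °C with intermittent orbital shaking at 500–750 rpm. Fluorescence (ex 444/em 480 nm) read every 30 min; value is average time to a rise in baseline-corrected signal.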

| EC50 [1] | EC50 [2] | Time taken to detect increase in fluorescence intensity [3] | Compound |
| --- | --- | --- | --- |
| 17.7 pM | 1860 pM | >144 h | CC[C@H](C)[C@H](NC(=O)[C@@H]1CCCN1C(=O)CNC(=O)[C@](C)(Cc1ccccc1)NC(=O)[C@H](CC(N)=O)NC(=O)[C@H](CC(N)=O)NC(=O)[C@H](CO)NC(=O)[C@H](CO)NC(=O)[C@H](Cc1c[nH]cn1)NC(=O)[C@@H](NC(=O)[C@H](CC(C)C)NC(=O)[C@H](Cc1ccccc1)NC(=O)[C@H](CC(N)=O)NC(=O)[C@H](C)NC(=O)[C@H](CC(C)C)NC(=O)[C@H](CCCNC(=N)N)NC(=O)[C@H](CCC(N)=O)NC(=O)[C@@H](NC(=O)[C@H](C)NC(=O)[C@@H]1CSSC[C@H](NC(=O)[C@@H](N)CCCCNC(=O)CC[C@H](NC(=O)CC[C@H](NC(=O)CCCCCCCCCCCCCCCCC(=O)O)C(=O)O)C(=O)O)C(=O)N[C@@H](CC(N)=O)C(=O)N[C@@H]([C@@H](C)O)C(=O)N[C@@H](C)C(=O)N[C@@H]([C@@H](C)O)C(=O)N1)[C@@H](C)O)C(C)C)C(=O)N[C@@H](CC(C)C)C(=O)N1CCC[C@H]1C(=O)N1CCC[C@H]1C(=O)N[C@H](C(=O)N[C@@H](CCCNC(=N)N)C(=O)N[C@H](C(=O)NCC(=O)N[C@@H](CO)C(=O)N[C@@H](CC(N)=O)C(=O)N[C@H](C(=O)N[C@@H](Cc1ccc(O)cc1)C(N)=O)[C@@H](C)O)C(C)C)[C@@H](C)O [Peptide 24, K(γE-γE-C18diacid)[CNTATC]ATQRLANFLVHSSNN(αMePhe)GPILPPTRVGSNTY-amide] (H-K([γGlu-γGlu-C18 diacid])CNTATCATQRLANFLVHSSNN[αMeF]GPILPPTRVGSNTY-NH2; disulfide 2-7; N-terminus assumed) |
| 12.1 pM | 2730 pM | >144 h | CC[C@H](C)[C@H](NC(=O)[C@@H]1CCCN1C(=O)CNC(=O)[C@](C)(Cc1ccccc1)NC(=O)[C@H](CC(N)=O)NC(=O)[C@H](CC(N)=O)NC(=O)[C@H](CO)NC(=O)[C@H](CO)NC(=O)[C@H](Cc1c[nH]cn1)NC(=O)[C@H](CCCNC(=N)N)NC(=O)[C@H](CC(C)C)NC(=O)[C@H](Cc1ccccc1)NC(=O)[C@H](CCC(=O)O)NC(=O)[C@H](C)NC(=O)[C@H](CC(C)C)NC(=O)[C@H](CCCNC(=N)N)NC(=O)[C@H](CCC(N)=O)NC(=O)[C@@H](NC(=O)[C@H](C)NC(=O)[C@@H]1CSSC[C@H](NC(=O)CC[C@H](NC(=O)CCCCCCCCCCCCCCCCC(=O)O)C(=O)O)C(=O)N[C@@H](CC(N)=O)C(=O)N[C@@H]([C@@H](C)O)C(=O)N[C@@H](C)C(=O)N[C@@H]([C@@H](C)O)C(=O)N1)[C@@H](C)O)C(=O)N[C@@H](CC(C)C)C(=O)N1CCC[C@H]1C(=O)N1CCC[C@H]1C(=O)N[C@H](C(=O)N[C@@H](CC(N)=O)C(=O)N[C@H](C(=O)NCC(=O)N[C@@H](CO)C(=O)N[C@@H](CC(N)=O)C(=O)N[C@H](C(=O)N[C@@H](Cc1ccc(O)cc1)C(N)=O)[C@@H](C)O)C(C)C)[C@@H](C)O [Peptide 10, C18diacid-γE-[CNTATC]ATQRLAEFLRHSSNN(αMePhe)GPILPPTNVGSNTY-amide] ({C18 diacid-γGlu}-CNTATCATQRLAEFLRHSSNN[αMeF]GPILPPTNVGSNTY-NH2; disulfide 1-6) |
